# Reference: US4003936A, “2-Hydrocinnampyl-1,3-cyclopentanediones” (Zaidan Hojin Biseibutsu Kagaku Kenkyu Kai, priority 1970, dated 1977)
# How the values were obtained:
# [1] = biological target: T1, tyrosine hydroxylase (Bos taurus, UniProt P17289); assay: inhibition of tyrosine hydroxylase (method of J. Antibiot. 23, 514 (1970)); format: biochemical; set-up: inhibition: dose or concentration left out as unconfirmed; settings: for inhibition at 0.1 mg: at 100 meg. (figure after the slash in the cell); for inhibition at 0.1 mg / inhibition at 0.05 mg / inhibition: read-out: Inhibition of the product (1a) to tyrosine hydroxylase; for inhibition at 0.05 mg: at 50 meg. (figure after the slash in the cell); for inhibition: at 200 meg. (figure after the slash in the cell)
# T1 sequence (P17289 1-491): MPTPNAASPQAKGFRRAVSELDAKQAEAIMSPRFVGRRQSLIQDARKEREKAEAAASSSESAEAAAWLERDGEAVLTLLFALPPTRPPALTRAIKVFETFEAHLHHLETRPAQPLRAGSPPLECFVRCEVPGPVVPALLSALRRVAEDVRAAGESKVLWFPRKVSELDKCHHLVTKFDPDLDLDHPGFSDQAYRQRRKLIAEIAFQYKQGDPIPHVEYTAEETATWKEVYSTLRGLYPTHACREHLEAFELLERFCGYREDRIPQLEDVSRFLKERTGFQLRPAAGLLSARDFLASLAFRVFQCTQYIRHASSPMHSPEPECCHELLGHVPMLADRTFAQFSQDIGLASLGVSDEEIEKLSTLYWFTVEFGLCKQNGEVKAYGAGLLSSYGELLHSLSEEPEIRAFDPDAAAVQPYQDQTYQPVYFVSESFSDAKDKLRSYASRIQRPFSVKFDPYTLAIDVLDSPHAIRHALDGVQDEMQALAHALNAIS
# Text: (§1) Pharmacological properties of the new compounds of the present invention are now described. The new compounds of the present invention have been examined for their biological activities, and their inhibition to tyrosine hydroxylase are summarised in Table 2 later. The details of the test methods used and the close relationship of the biological activities between in vitro and in vivo are well presented in some published literatures (for example, see "J. Antibiot." 23, 514 (1970) and "J. Am. Chem. Soc." 93, 1285 (1971)). For instance, 2-(2-hydroxyhydrocinnamoyl)-1,3-cyclopentanedione, typical one of the new compounds of the present invention, was tested by dissolving in distilled water (pH was adjusted to 2.5) and administering to mice. […] Effect of this compound on tyrosine hydroxylase was also tested by the method described in the "Journal of Antibiotics" 23, 514 (1970).
# In these Examples, various derivatives of 2cinnamoyl-1,3-cyclopentanedione of the formula [IVa] as prepared in Examples 3 - 34 were converted into the corresponding derivatives of 2-hydrocinnamoyl-1,3-cyclopentanedione of the formula [Ia] by hydrogenating them in the same manner as in the catalytic hydrogenation step of Example 1 (3). Nature of R1 and R2 in the resulting hydrogenation products 2-hydrocinnamoyl-1,3-cyclopentanediones [Ia], their yields, melting point and elementary analysis data are summarised in Table 2 with reference to the amount and nature of the catalyst and solvent which were employed in the catalytic hydrogenation step. In Table 2, there are also shown the degrees of inhibition (%) of the produced derivatives of 2-hydrocinnamoyl-1,3-cyclopentanedione [Ia] to tyrosine hydroxylase to provide a measure of their biological properties, the inhibition degrees as shown being determined by the same method as that used to estimate the inhibition % of 2-(2-hydroxyhydrocinnamoyl)-1,3-cyclopentanedione as mentioned above.
# [2] = system: mice; assay: sedative effect after injection of a large dose, mice; format: in vivo
# [3] = acute toxicity (LD50) in mice; settings: mouse, in vivo, dissolved in distilled water pH 2.5
# Text: as §1
# [4] = system: hypertensive patients; assay: daily administration to hypertensive patients for 30 days; format: in vivo, human; settings: 300 mcg daily divided into three times
# [5] = system: rats; assay: sedative effect after injection of a large dose, rats; format: in vivo
# [6] = system: rats; assay: blood pressure of rats on daily injection or oral administration; format: in vivo
# Protocol: (§2) Hydroxylation of tyrosine is the rate-limiting step of norepinephrine biosynthesis. Therefore, inhibition of tyrosine hydroxylase results in inhibition of norepinephrine synthesis in vivo which results in lowering the blood pressure. […] The hypotensive effect can be seen more markedly, when it is given to genetically hypertensive rats which was developed by Prof. Okamoto, Midical School, University of Kyoto. When 6.25 mg/Kg. was intraperitoneally injected to a rat of 185 mm. blood pressure and another rat of 188 mm., then the blood pressure was lowered to […]. and 118-162 mm. respectively during 1-22 hours after the injection. When 125 mg/Kg. was intraperitoneally injected to a rat of 195 mm., the pressure was reduced to 155-166 mm. during 1-22 hours after the injection. […] It caused 20-30% reduction which continued for about 5 days after the last oral administration.
# [7] = system: genetically hypertensive rats; assay: hypotensive effect in genetically hypertensive rats; format: in vivo; settings: for blood pressure after injection: 1-22 hours after the injection
# Protocol: as §2
# [8] = oral, daily 3.1, 6.25, 12.5, 25 mg/Kg for three days
compound,measurement,setting,value
"O=C1CCC(=O)C1C(=O)CCc1ccccc1 [Example 35, 2-hydrocinnamoyl-1,3-cyclopentanedione]",inhibition at 0.1 mg,[1],60%
"O=C1CCC(=O)C1C(=O)CCc1ccccc1O [Example 38, 2-(2-hydroxyhydrocinnamoyl)-1,3-cyclopentanedione]",sedative effect,[2],did not cause sleeping and the sedative effect was not recognized
same,LD50,"[3]; ip, intraperitoneal injection",283 mg/kg
same,LD50,[3]; oral administration,550 mg/kg
same,hypotensive effect,[4],showed hypotensive effect
same,side effect,[4],without any side effect
same,sedative effect,[5],did not cause sleeping and the sedative effect was not recognized
same,effect on blood pressure,[6],lowered the blood pressure
same,blood pressure after injection,"[7]; 6.25 mg/Kg intraperitoneally, rat of 185 mm. blood pressure",25-155 mm.
same,blood pressure after injection,"[7]; 6.25 mg/Kg intraperitoneally, rat of 188 mm. blood pressure",118-162 mm.
same,blood pressure after injection,"[7]; 125 mg/Kg intraperitoneally, rat of 195 mm. blood pressure",155-166 mm.
same,duration of the blood pressure reduction after the last oral administration,[7]; [8],about 5 days
same,reduction of blood pressure,[7]; [8],20-30%
same,inhibition to tyrosine hydroxylase,[1]; at 12.5 mcg/cc,30%
same,inhibition to tyrosine hydroxylase,[1]; at 25 mcg/cc,38%
same,inhibition to tyrosine hydroxylase,[1]; at 50 mcg/cc,44%
same,inhibition at 0.1 mg,[1],52%
same,"relation with 2-amino-4-hydroxy-6,7-dimethyltetrahydropteridine (Lineweaver-Burk plot)","[1]; cofactor 2-amino-4-hydroxy-6,7-dimethyltetrahydropteridine",competitive
same,relation with tyrosine (Lineweaver-Burk plot),[1]; substrate tyrosine,uncompetitive
"O=C1CCC(=O)C1C(=O)CCc1cccc(O)c1 [Example 39, 2-(3-hydroxyhydrocinnamoyl)-1,3-cyclopentanedione]",inhibition at 0.1 mg,[1],23%
"O=C1CCC(=O)C1C(=O)CCc1ccc(O)cc1 [Example 40, 2-(4-Hydroxyhydrocinnamoyl)-1,3-cyclopentanedione]",inhibition at 0.05 mg,[1],32%
"COc1ccc(CCC(=O)C2C(=O)CCC2=O)cc1 [Example 41, 2-(4-Methoxyhydrocinnamoyl)-1,3-cyclopentanedione]",inhibition at 0.1 mg,[1],29%
"O=C1CCC(=O)C1C(=O)CCc1ccccc1Cl [Example 42, 2-(2-chlorohydrocinnamoyl)-1,3-cyclopentanedione]",inhibition at 0.1 mg,[1],10%
"O=C1CCC(=O)C1C(=O)CCc1ccc(Cl)cc1 [Example 43, 2-(4-chlorohydrocinnamoyl)-1,3-cyclopentanedione]",inhibition at 0.1 mg,[1],42%
O=C1CCC(=O)C1C(=O)CCc1cccc(F)c1 [Example 44],inhibition at 0.1 mg,[1],36%
"O=C1CCC(=O)C1C(=O)CCc1ccc(F)cc1 [Example 45, 2-(4-Fluorohydrocinnamoyl)-1,3-cyclopentanedione]",inhibition,[1],62%
O=C1CCC(=O)C1C(=O)CCc1ccccc1F [Example 46],inhibition,[1],53%
COc1ccccc1CCC(=O)C1C(=O)CCC1=O [Example 47],inhibition,[1],7.6%
O=C1CCC(=O)C1C(=O)CCc1ccc(Br)cc1 [Example 48],inhibition at 0.05 mg,[1],50%
"Cc1ccc(CCC(=O)C2C(=O)CCC2=O)cc1 [Example 49, 2-(4-methylhydrocinnamoyl)-1,3-cyclopentanedione]",inhibition,[1],44%
"COC(=O)c1ccc(CCC(=O)C2C(=O)CCC2=O)cc1 [Example 50, 2-(4-Methoxycarbonylhydrocinnamoyl)-1,3-cyclopentanedione]",inhibition,[1],41%
COc1cccc(CCC(=O)C2C(=O)CCC2=O)c1 [Example 51],inhibition,[1],6.4%
CCOc1ccc(CCC(=O)C2C(=O)CCC2=O)cc1 [Example 52],inhibition,[1],15.6%
O=C1CCC(=O)C1C(=O)CCc1cccc(Br)c1 [Example 53],inhibition,[1],50.7%
CC(C)c1ccc(CCC(=O)C2C(=O)CCC2=O)cc1 [Example 54],inhibition,[1],36.8%
CCOC(=O)c1ccc(CCC(=O)C2C(=O)CCC2=O)cc1 [Example 55],inhibition,[1],12.8%
CCCOC(=O)c1ccc(CCC(=O)C2C(=O)CCC2=O)cc1 [Example 56],inhibition,[1],4.6%
N#Cc1ccc(CCC(=O)C2C(=O)CCC2=O)cc1 [Example 57],inhibition,[1],77.4%
CN(C)c1ccc(CCC(=O)C2C(=O)CCC2=O)cc1 [Example 58],inhibition,[1],10.1%
O=C1CCC(=O)C1C(=O)CCc1cccc(C(F)(F)F)c1 [Example 59],inhibition,[1],30.5%
CC(=O)Oc1ccccc1CCC(=O)C1C(=O)CCC1=O [Example 60],inhibition at 0.1 mg,[1],10%
"COc1cc(CCC(=O)C2C(=O)CCC2=O)ccc1O [Example 61, 2-(4-Hydroxy-3-methoxyhydrocinnamoyl)-1,3-cyclopentanedione]",inhibition to tyrosine hydroxylase,[1]; at 200 mcg/cc,about 10%
"O=C1CCC(=O)C1C(=O)CCc1ccc(Cl)c(Cl)c1 [Example 62, 2-(3,4-dichlorohydrocinnamoyl)-1,3-cyclopentanedione]",inhibition to tyrosine hydroxylase,[1]; at 100 mcg/cc,45%
"O=C1CCC(=O)C1C(=O)CCc1ccc2c(c1)OCO2 [Example 63, 2-(3,4-methylenedioxyhydrocinnamoyl)-1,3-cyclopentanedione]",inhibition to tyrosine hydroxylase,[1]; at 100 mcg/cc,22.5%
"COc1ccc(CCC(=O)C2C(=O)CCC2=O)cc1O [Example 64, 2-(3-hydroxy-4-methoxyhydrocinnomoyl)-1,3-cyclopentanedione]",inhibition to tyrosine hydroxylase,[1]; at 200 mcg/cc,29.5%
"COc1cccc(CCC(=O)C2C(=O)CCC2=O)c1O [Example 65, 2-(2-hydroxy-3-methoxyhydrocinnamoyl)-1,3-cyclopentanedione]",inhibition to tyrosine hydroxylase,[1]; at 100 mcg/cc,5%
"O=C1CCC(=O)C1C(=O)CCc1ccc(O)c(O)c1 [Example 66, 2-(3,4-dihydroxyhydrocinnamoyl)-1,3-cyclopentanedione]",inhibition to tyrosine hydroxylase,[1]; at 100 mcg/cc,85%
